From US20110152313A1 (MACQUARIE UNIVERSITY, priority 2008, published 2011)

Molecular target: T1, ULK1 (Homo sapiens, UniProt O75385)
T1 sequence (O75385 1-1050): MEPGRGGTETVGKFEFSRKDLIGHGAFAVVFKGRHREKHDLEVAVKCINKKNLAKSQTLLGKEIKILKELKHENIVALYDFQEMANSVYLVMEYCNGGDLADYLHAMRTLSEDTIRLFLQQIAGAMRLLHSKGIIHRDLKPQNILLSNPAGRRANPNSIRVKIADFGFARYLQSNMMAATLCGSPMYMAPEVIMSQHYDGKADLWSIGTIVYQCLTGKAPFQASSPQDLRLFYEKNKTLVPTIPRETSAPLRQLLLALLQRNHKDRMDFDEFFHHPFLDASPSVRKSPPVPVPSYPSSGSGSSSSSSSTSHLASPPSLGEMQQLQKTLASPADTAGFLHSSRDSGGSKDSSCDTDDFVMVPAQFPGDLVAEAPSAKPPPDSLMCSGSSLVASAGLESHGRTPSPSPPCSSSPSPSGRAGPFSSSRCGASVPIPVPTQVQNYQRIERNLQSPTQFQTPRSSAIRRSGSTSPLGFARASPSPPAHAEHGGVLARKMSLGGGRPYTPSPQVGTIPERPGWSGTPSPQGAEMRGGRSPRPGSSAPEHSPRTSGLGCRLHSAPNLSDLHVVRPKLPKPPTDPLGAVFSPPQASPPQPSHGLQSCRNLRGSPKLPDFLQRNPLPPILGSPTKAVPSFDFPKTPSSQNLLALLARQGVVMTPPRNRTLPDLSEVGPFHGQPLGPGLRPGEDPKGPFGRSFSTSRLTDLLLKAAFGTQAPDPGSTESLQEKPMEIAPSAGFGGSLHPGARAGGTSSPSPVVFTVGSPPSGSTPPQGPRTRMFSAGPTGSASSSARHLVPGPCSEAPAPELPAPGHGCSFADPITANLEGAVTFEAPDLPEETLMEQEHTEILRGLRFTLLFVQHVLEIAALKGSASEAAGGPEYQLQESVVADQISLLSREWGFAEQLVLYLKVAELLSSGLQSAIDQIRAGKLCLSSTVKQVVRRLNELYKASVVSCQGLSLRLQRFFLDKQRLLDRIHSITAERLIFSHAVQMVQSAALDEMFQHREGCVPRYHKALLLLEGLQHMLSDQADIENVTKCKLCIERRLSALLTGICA
Assay: kinase binding constant, 11-point dose response (T7 phage, qPCR)
Conditions: >30 = no inhibition at highest concentration tested

`Nc1nc2c(-c3ccccn3)nccc2[nH]1` [drawing 35, 4-(pyrid-2-yl)-1H-imidazo[4,5-c]pyridin-2-amine] gave a Kd of 24 µM.
